Reference: patent EP4603105A1, “PHARMACEUTICAL COMPOSITION CONTAINING CYCLIC COMPOUND HAVING SELECTIVE KRAS INHIBITORY EFFECT AGAINST HRAS AND NRAS” (CHUGAI SEIYAKU KABUSHIKI KAISHA, priority 2022, dated 2024)
Where a SMILES comes first, the peptide text is derived from it. Bridges are numbered along the chain shown (N, C = ends). [ ]: non-standard residue; d: D form. The star is where a group is joined. hPhe(3,5-F2-4-CF3) = N[C@@H](CCc1cc(F)c(C(F)(F)F)c(F)c1)C(=O)O; NPrPhe(4-CF3) = CCCN[C@@H](Cc1ccc(C(F)(F)F)cc1)C(=O)O; NMeGly(cPent) = CN[C@H](C(=O)O)C1CCCC1; NMeD = CN[C@@H](CC(=O)O)C(=O)O; NMeL = CN[C@@H](CC(C)C)C(=O)O; αMeS = C[C@](N)(CO)C(=O)O; Morpholide = C1CN(*)CCO1; Aze = O=C(O)[C@@H]1CCN1; Sar = CNCC(=O)O; Allyl = C=CC*

Legend:
[1] = target: GDP-bound KRAS wild-type protein (Homo sapiens, UniProt P01116); assay: Binding to KRAS by surface plasmon resonance (SPR), dissociation constant KD
Sequence of GDP-bound KRAS wild-type protein (P01116 1-188 isoform P01116-2): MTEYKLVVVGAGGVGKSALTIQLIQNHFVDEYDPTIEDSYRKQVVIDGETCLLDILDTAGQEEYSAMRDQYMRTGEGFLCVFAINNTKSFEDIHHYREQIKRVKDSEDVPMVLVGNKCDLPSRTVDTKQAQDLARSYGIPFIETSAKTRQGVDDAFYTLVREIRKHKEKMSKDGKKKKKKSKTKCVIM
Procedure, shortened: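 GDP-bound biotin-Avi RAS captured at ~100–300 RU, 30°C, pH 7.4 HBS containing 10 µM GDP, 10 mM MgCl2, 1 mM DTT, 0.01% Tween 20 and 4% DMSO. KD by 1:1 fitting.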

HRAS wild-type protein = HRAS wild-type protein (Homo sapiens, UniProt P01112); assay: Binding to HRAS by surface plasmon resonance (SPR), KD and KD ratio to KRAS
Sequence of HRAS wild-type protein (P01112 whole entry): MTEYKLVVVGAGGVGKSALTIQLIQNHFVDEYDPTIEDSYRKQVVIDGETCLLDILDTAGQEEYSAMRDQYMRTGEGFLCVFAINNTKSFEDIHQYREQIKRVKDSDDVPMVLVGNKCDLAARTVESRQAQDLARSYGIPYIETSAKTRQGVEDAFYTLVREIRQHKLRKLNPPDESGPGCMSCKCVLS
Procedure, shortened: (§1)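 Affinity is measured by surface plasmon resonance at 30°C against captured, GDP-loaded RAS carrying a biotinylated Avi tag. Compounds are titrated by single-cycle kinetics, and KD comes from a 1:1 fit.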

[2] = target: GDP-bound NRAS wild-type protein (Homo sapiens, UniProt P01111); assay: Binding to NRAS by surface plasmon resonance (SPR), KD and KD ratio to KRAS
Sequence of GDP-bound NRAS wild-type protein (P01111 whole entry): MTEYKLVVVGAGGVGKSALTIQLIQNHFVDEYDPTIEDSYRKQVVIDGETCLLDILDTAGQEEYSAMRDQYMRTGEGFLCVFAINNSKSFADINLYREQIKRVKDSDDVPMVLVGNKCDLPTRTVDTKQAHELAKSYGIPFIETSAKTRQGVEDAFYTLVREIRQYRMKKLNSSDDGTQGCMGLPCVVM
Procedure, shortened: as §1

[3] = tested on: human lung cancer strain NCI-H441; format: cell-based
Procedure, shortened: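 Readout: […] after the ATP-based reagent. Compound: serial dilutions in dimethyl sulfoxide.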

[4] = ratio of KD for HRAS wild-type protein to KD for KRAS
[5] = ratio of KD for GDP-bound NRAS wild-type protein to KD for KRAS

Structure (SMILES)	Kd ([1]; 1:1 binding model)	HRAS /KRAS (HRAS wild-type protein; [4])	NRAS /KRAS [2, 5]	IC50 [3]	Kd ([1]; Single Cycle Kinetics, 1:1 binding model)	HRAS /KRAS (HRAS wild-type protein; ratio of KD value for HRAS wild-type protein to KD value for KRAS (SPR))	NRAS /KRAS ([2]; ratio of KD value for GDP-bound NRAS wild-type protein to KD value for KRAS (SPR))	Kd ([1]; Single Cycle Kinetics)
CCO[C@@H]1C[C@H]2C(=O)NC3(CC(C)(C)C3)C(=O)N(C)[C@@H](C3CCCC3)C(=O)N(C)[C@H](C(=O)N(C)C)CC(=O)N(C)[C@@H]([C@H](C)OC)C(=O)N[C@@H]([C@@H](C)CC)C(=O)N(C3CC3)CC(=O)N(C)[C@H]3C/C=C\CCN(C3=O)[C@@H](Cc3ccc(C)cc3)C(=O)N(C)CC(=O)N[C@@H](CCc3cc(F)c(C(F)(F)F)c(F)c3)C(=O)N2C1 [PP3193]	0.35 nM	A (a compound having 10 or more and less than 20 is denoted as A)	A (a compound having 10 or more and less than 20 is denoted as A)	21.1 nM				
CCC[C@H]1C(=O)N[C@@H]([C@@H](C)CC)C(=O)N(C)CC(=O)N(C)[C@H]2C/C=C\CCN(C2=O)[C@@H](Cc2ccc(C)cc2)C(=O)N(C)CC(=O)N[C@@H](CCc2ccc(C(F)(F)F)c(OC)c2)C(=O)N2C[C@H](C)C[C@H]2C(=O)NC2(CC(C)(C)C2)C(=O)N(C)[C@@H](C2CCCC2)C(=O)N(C)[C@H](C(=O)N(C)C)CC(=O)N1C [PP1890]				3.6 nM	0.15 nM	B (a compound having 3 or more and less than 10 is denoted as B)	A (a compound having 10 or more and less than 20 is denoted as A)	
CCC[C@H]1C(=O)N[C@@H]([C@@H](C)CC)C(=O)N(C)CC(=O)N(C)[C@H]2C/C=C\CCN(C2=O)[C@@H](Cc2ccc(C)cc2)C(=O)N(C)CC(=O)N[C@@H](CCc2ccc3c(C)c(C)n(C)c3c2)C(=O)N2C[C@H](OCC)C[C@H]2C(=O)NC2(CC(C)(C)C2)C(=O)N(C)[C@@H](C(CC)CC)C(=O)N(C)[C@H](C(=O)N(C)C)CC(=O)N1C [PP2906]	5.5 nM	A (a compound having 10 or more and less than 20 is denoted as A)	A (a compound having 10 or more and less than 20 is denoted as A)	99.3 nM				
CCO[C@@H]1C[C@H]2C(=O)NC3(CC(C)(C)C3)C(=O)N(C)[C@@H](C(CC)CC)C(=O)N(C)[C@H](C(=O)N(C)C)CC(=O)N(C)[C@H]3CC/C=C/c4ccc(cc4)C[C@@H](C(=O)N(C)CC(=O)N[C@@H](CCc4ccc(Cl)c(Cl)c4)C(=O)N2C1)N1CC/C=C\C[C@@H](C1=O)N(C)C(=O)CN(C)C(=O)[C@H]([C@@H](C)CC)NC3=O [PP2589]	0.45 nM	A (a compound having 10 or more and less than 20 is denoted as A)	AA (a compound having 20 or more is denoted as AA)	74.1 nM				
CCC[C@H]1C(=O)N[C@@H]([C@@H](C)CC)C(=O)N(C)CC(=O)N(C)[C@H]2C/C=C\CCN(C2=O)[C@@H](Cc2ccc(C)cc2)C(=O)N(C)CC(=O)N[C@@H](CCc2ccc3sc(C)c(C)c3c2)C(=O)N2C[C@H](OCC)C[C@H]2C(=O)NC2(CC(C)(C)C2)C(=O)N(C)[C@@H](C2CCCC2)C(=O)N(C)[C@H](C(=O)N(C)C)CC(=O)N1C [PP2891]	0.33 nM	B (a compound having 3 or more and less than 10 is denoted as B)	A (a compound having 10 or more and less than 20 is denoted as A)	17.2 nM				
CCO[C@@H]1C[C@H]2C(=O)NC3(CC(C)(C)C3)C(=O)N(C)[C@@H](C3CCCC3)C(=O)N(C)[C@H](C(=O)N(C)CC)CC(=O)N(C)[C@H]3C/C=C/c4ccc(cc4)C[C@@H](C(=O)N(C)CC(=O)N[C@@H](CCc4ccc(Cl)c(Cl)c4)C(=O)N2C1)N1CC/C=C\C[C@@H](C1=O)N(C)C(=O)CN(C)C(=O)[C@H]([C@@H](C)CC)NC3=O [PP3056]	1.4 nM	A (a compound having 10 or more and less than 20 is denoted as A)	A (a compound having 10 or more and less than 20 is denoted as A)	151 nM				
C=CCOC[C@]1(C)NC(=O)[C@@H]2CCCN2C(=O)[C@H](CCc2cc(F)c(C(F)(F)F)c(F)c2)NC(=O)CN(C)C(=O)[C@H](Cc2ccc(C(F)(F)F)cc2)N(CCC)C(=O)CN(C)C(=O)[C@@H]2CCN2C(=O)[C@H]([C@@H](C)CC)NC(=O)[C@H](CC(C)C)N(C)C(=O)C[C@@H](C(=O)N2CCOCC2)N(C)C(=O)[C@H](C2CCCC2)N(C)C1=O [PP0780] ([NMeL]I[Aze][Sar][NPrPhe(4-CF3)][Sar][hPhe(3,5-F2-4-CF3)]P[αMeS](Allyl)[NMeGly(cPent)][NMeD]-Morpholide; lactam N-11)		B (a compound having 3 or more and less than 10 is denoted as B)	B (a compound having 3 or more and less than 10 is denoted as B)	527 nM				7.8 nM
